Source: paper PMC7765298, “EGFR-Binding Peptides: From Computational Design towards Tumor-Targeting of Adeno-Associated Virus Capsids” (International Journal of Molecular Sciences, 2020)

Key:
[1] = target: EGFR; settings: dissociation constant described for EGFR-binding peptide GE11; cited from earlier work
[2] = system: A431 cells; experiment: Wound healing assay; assay type: cell-based; settings: 1 nM recombinant human EGF in RPMI medium, positive control
Description: Since biophysical measurements are confounded by the intrinsic diversity of receptor conformations and imaging of moderate binding is difficult, we assessed peptide activity using a cell-based functional assay. Epidermoid tumor cell line A431 depends on EGF signaling for proliferation and migration, which can be assessed by wound healing assays monitoring the closure of a scratch in a cell lawn. A431 cells were grown to a confluent cell monolayer, serum-starved, and scratched. The resulting gap was monitored by microscopy and measured over a 6-h period (Figure 3A). As a positive, control cells were treated with 1 nM recombinant human EGF (hEGF) in RPMI medium. Cell migration in µm/h was calculated from a linear regression of the gap area over time plotted against time (Figure S6). […]
Figure 3 Effect of EGFR-directed peptides in the presence of the natural EGFR-ligand EGF in a wound healing assay with A431 cells. […] The yellow cell borders were detected by image recognition using ImageJ. […] (B) Bar chart presenting the cell migration velocity as determined from microscopy images. […]
Figure S6. […] The gap area over time is analyzed for each sample.
Areas were calculated using ImageJ. Linear regressions were calculated to determine to growth rate. […]

## YHWYGYTPQNVI [GE11]
[1]
  Kd: 459 µM

## hEGF: recombinant human epidermal growth factor, positive control
[2]
  increase in cell migration compared to negative control (buffer): three-fold increase
